“Also recorded” adds a separate entry of the source. Like-named read-outs stand apart in the source and are kept apart here.
Legend:
aromatase [1] = tested on: aromatase; design: method as in US EPA ToxCast; settings: ref US EPA ToxCast, cited from earlier work
ERα [2] = target: T1, ERα (Homo sapiens, UniProt P03372); experiment: YES (Yeast oestrogen screen) assay, agonist and antagonist mode; settings: YES antagonist assay
T1 sequence (P03372 1-595): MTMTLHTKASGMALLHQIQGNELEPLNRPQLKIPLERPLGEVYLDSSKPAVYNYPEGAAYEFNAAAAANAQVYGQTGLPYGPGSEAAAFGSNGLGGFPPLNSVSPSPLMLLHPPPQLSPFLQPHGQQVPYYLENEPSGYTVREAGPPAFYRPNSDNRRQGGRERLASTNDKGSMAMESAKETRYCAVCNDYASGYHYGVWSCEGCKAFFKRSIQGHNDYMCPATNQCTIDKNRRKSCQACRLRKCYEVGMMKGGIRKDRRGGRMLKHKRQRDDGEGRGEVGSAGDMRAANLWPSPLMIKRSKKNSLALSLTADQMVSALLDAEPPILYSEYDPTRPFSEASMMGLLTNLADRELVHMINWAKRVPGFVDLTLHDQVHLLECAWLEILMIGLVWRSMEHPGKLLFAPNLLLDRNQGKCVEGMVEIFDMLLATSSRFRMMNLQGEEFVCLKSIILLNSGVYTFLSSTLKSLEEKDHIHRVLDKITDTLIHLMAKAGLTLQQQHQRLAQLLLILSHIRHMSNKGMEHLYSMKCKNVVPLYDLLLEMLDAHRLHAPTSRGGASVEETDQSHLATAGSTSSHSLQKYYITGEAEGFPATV
Method: The YES/YAS XL (Xtra Lyticase) assay kit from Xenometrix AG (Allschwil, Switzerland) was conducted according to the Supplier’s instructions.
In the YES assay, human ERα is integrated in the yeast (Saccharomyces cerevisiae) chromosome, and for the YAS assay human AR is integrated (Routledge and Sumpter 1996; Sohoni and Sumpter 1998). […] This enzyme then converts a yellow substrate to a purple metabolite, which can be measured colorimetrically.
Growing yeast cells stably transformed with either hERα (YES) or hAR (YAS) and a β-galactosidase reporter system were exposed to a range of concentrations of each test compound. […] The positive control chemicals for agonistic effects were 17-β estradiol for YES and 5α-dihydrotestosterone for YAS. […] A combination of a fixed concentration of positive control and a range of concentrations of each test chemical were tested. The cells were incubated with each treatment for 18 h at 31°C. The cells were lysed in the presence of the yellow β-galactosidase-substrate, chlorophenol red-β-D-galactopyranoside (CPRG). Yeast cell growth was assessed prior to addition of the lysis buffer by measuring the absorbance at 690 nm. The production of the red metabolite of CPRG was determined by measuring the absorbance at 570 nm. It was corrected for diffraction by cells and debris by a simultaneous measurement at 690 nm. The results were evaluated for estrogenic and androgenic agonistic and antagonistic activity, as well as for yeast growth inhibition or cytotoxicity.
An IR value ≥ IR10 in the YES or YAS agonist assay indicates an agonistic effect (IR10 is defined as the IR which is 10% of (IR max - IR solvent) above the IR solvent. An IR value ≤ IR50 in the YES or YAS antagonist assay indicates a possible antagonistic effect (IR50 is defined as 50% of (IR control - IR solvent), where the IR control is at the corresponding fixed concentration of agonist used: 3.3 × 10^-10 M 17-β estradiol and 3.3 × 10^-9 M 5α-dihydrotestosterone, respectively). […]

ERα [3] = target: T1, ERα; experiment: (anti-)ERα CALUX receptor transactivation assay; format: cell-based; design: expressed in transfected cells; host or cells: CALUX cells (U2-OS is named only for the cytotoxicity CALUX)
Method: The human CALUX® assays were used to measure the impact of test compounds on estrogen and androgen pathways. […] Chemicals can activate (or inactivate, in the case of an antagonistic activity) a ligand-specific pathway by binding to the receptor (ER, AR), after which the receptor-ligand complex binds to specific DNA REs […], resulting in increased (or decreased) cellular expression of a marker protein (e.g., luciferase).
Chemicals were dissolved and diluted in DMSO. […] The cytotoxicity of each test chemical was assessed using the U2-OS based cytotoxicity CALUX bioassay. Concentrations causing >20% reduction of luminescence were considered cytotoxic. […] Luciferase production was quantified by measuring luminescence following addition of luciferin. For antagonist assays, a fixed concentration of receptor agonist was co-incubated with a range of concentrations of the test chemical. […] For the AR assays, dihydrotestosterone was the positive control for agonistic effects and flutamide was the positive control for antagonist effects.
Each test chemical was tested in triplicates in two independent experiments.

aromatase [4] = experiment: ToxCast aromatase assays (TOX21_Aromatase_Inhibition) and final ToxCast call; format: cell-based; settings: for ToxCast result: aromatase overall ToxCast call; for Final "true" call (ToxCast) Aromatase inhibition: from ToxCast assays
Description: (§1) The performance of different in silico models for ED effects tends to be evaluated on single model for a single effect, such as ER or AR binding, agonism or antagonism (normally by the developer), or a limited number of models using multiple chemicals (Weyrich et al. [2022]). Multi-organisation collaborations have also evaluated multiple models for a specific effect e.g. ER (Mansouri et al. [2016]) and AR (Mansouri et al. [2020]) effects. Therefore, we have conducted a side-by-side comparison of multiple different in silico models covering three pathways in ED, namely ER, AR and aromatase inhibition and compared these with ToxCast-derived final calls, as well as with results from in vitro assays. The efficiency of the in silico models was evaluated as a metric for the ability of the in silico model to generate concrete predictions. […] In vivo data were available for some but not all chemicals; therefore, an evaluation of the performance of the methods was made by comparing the derived overall calls from in silico models with those from the ToxCast database. The final call for each chemical evaluated in the ToxCast assays was made by considering the active-flagged assays and the corresponding cytotoxicity levels, the ToxCast Pathway Model (Browne et al. [2015]) and the CERAPP Potency Level (Mansouri et al. [2016]) for ER effects and the ToxCast Pathway Model (Kleinstreuer et al. [2017]) for AR effects (see Online Resource 1 Supplementary Tables 2, 4 and 6 for the outcome of the ER, AR and aromatase ToxCast assays, additional literature and final calls for each chemical and target).
Aromatase represents only one enzyme involved in steroidogenesis (the conversion of androgens to oestrogens); therefore, the aromatase assay detects effects on 17β-oestradiol production only. […] It is a cell-based assay in which MCF-7 cells are incubated with the test chemical for 24 h before measuring aromatase activities indirectly via a luciferase-based reporter endpoint which is dependent on the binding of the oestradiol–ER complex to the oestrogen response element. A decrease in luciferase activity can occur as a result of direct inhibition of aromatase (preventing the production of oestradiol) or by preventing oestradiol from binding to the ER and thus the binding to the oestrogen RE which initiates the production of luciferase (Lui et al. [2008]).

ER [5] = tested on: ER; design: method as in Mansouri et al. 2016; settings: ref Mansouri et al. 2016; cited from earlier work
AR [6] = experiment: ToxCast AR assays and final ToxCast call; settings: for Final "true" call (ToxCast): AR effects, from active assays, cytotoxicity and pathway model; for ToxCast result: AR overall call from Supplementary Table 4; for Final "true" call (ToxCast) AR: from ToxCast assays and ToxCast Pathway Model
Description: (§2) A rich source of data can be found in the EPA's ToxCast database (US EPA). This contains ED data for ~ 1800 chemicals in more than 700 high-throughput assay endpoints that cover a range of high-level cell responses. The US EPA is running an Endocrine Disruption Screening Program (EDSP), with the aim of prioritising chemicals using high-throughput screening methods and computational toxicology approaches to evaluate thousands of chemicals for ED activities. The OECD framework for ED assessment (OECD [2018]) requires animal testing at higher levels, where relevant in vitro alternatives are missing e.g. for developmental, reproductive, neurological and immune effects. However, such follow-up testing is not possible for the cosmetics industry especially in the EU due to the complete animal testing ban which came into force in March 2013 (EU [2009]). Even for other industries, animal models are not suitable for assessing ED effects due to issues relating to ethics, capacity, speed and relevance (Patisaul et al. [2018]). Therefore, chemicals which cannot be evaluated using in vivo method must be assessed using alternative methods e.g. in silico and in vitro methods listed in Levels 1 and 2 of the framework described in the OECD 150 test guideline (OECD [2018]).
as §1

ER [7] = experiment: ToxCast ER assays and final ToxCast call; settings: for Final "true" call (ToxCast) ER: from active ToxCast assays, cytotoxicity, ToxCast Pathway Model and CERAPP Potency Level; for ToxCast result (ER): overall call from ToxCast data (Supplementary Table 2)
Description: as §2, §1

H295R cells = experiment: H295R steroidogenesis assay (oestrogen and androgen production); format: cell-based, human; settings: Homo sapiens, NCI-H295R, 48 h
Method: The in vitro H295R Steroidogenesis Assay is based on the human adenocarcinoma cell line, NCI-H295R, in which the human steroidogenesis pathway is fully functional (OECD 2022). The effect of the test chemical on the production of 17β-estradiol and testosterone is measured using ERα CALUX and AR CALUX technology.
The test chemical was tested in two independent assays, each in triplicate.

AR [8] = tested on: AR; design: method as in ToxCast; settings: ref ToxCast, cited from earlier work; for ToxCast conclusion from assays result: AR sheet; for ToxCast 1: (Active assays), number of positive assays / assays run: ToxCast AR assays
ER [9] = tested on: ER; design: method as in US EPA ToxCast; settings: ref US EPA ToxCast, cited from earlier work; for ToxCast 1: (Comments), efficacy: borderline: less than 50% efficacy; for ToxCast 1: (Active assays), ER assay listed as active: each listed assay name = active-flagged assay
human (non-selective) ER = experiment: ER radioligand ([3H]estradiol) receptor-binding assay
Method: The chemicals were tested for their ability to bind to different targets. […] Chemicals were incubated at 10 µM with cells overexpressing ER or AR for 24 h at 4°C, after which, the binding of the radiolabeled ligand ([^3H]estradiol for ER and [^3H]methyltrienolone for AR) was measured by liquid scintillation counting. An increase or decrease higher than 50% were considered to represent significant effects. Four chemicals were tested in additional incubations at several concentrations up to the maximum soluble concentration for IC50 or EC50 determination for the associated target. Receptor binding was calculated as a % inhibition of the binding of a radioactively labeled ligand specific for each target.
Each test chemical was tested in a single assay in duplicate.

aromatase [10] = tested on: aromatase; design: method as in Lu et al. [2012]; settings: recombinant and placental microsomal preparations; ref Lu et al. [2012]; cited from earlier work
AR [11] = settings: AR pathway model; ref Kleinstreuer et al (2017) 10.1021/acs.chemrestox.6b00347; cited from earlier work
ER [12] = tested on: ER; design: method as in Browne, et al (2015); settings: ref Browne, et al (2015), cited from earlier work; for ToxCast Pathway Model (AUC): as agonist where given, value above 0.1 = significant interaction
[13] = read-out: Steroidogenesis Androgenicity LEC
[14] = read-out: Steroidogenesis Estrogenicity LEC

| Compound | ToxCast (Aromatase assays), positive/total (aromatase [1]) | ToxCast result (aromatase [4]) | Final "true" call (ToxCast) Aromatase inhibition (aromatase [4]) | CERAPP Potency Level (ER [5]) | Final "true" call (ToxCast) (AR [6]) | ToxCast result (AR [6]) | Final "true" call (ToxCast) AR (AR [6]) | Final "true" call (ToxCast) ER (ER [7]) | ToxCast result (ER) (ER [7]) | minimal effective concentration (H295R cells; [13]) [µM] | minimal effective concentration (H295R cells; [14]) [µM] | ToxCast conclusion from assays result (AR [8]) | ToxCast 1: (Active assays), number of positive assays / assays run (AR [8]) | ToxCast 1: (Comments), efficacy (ER [9]) | ToxCast 1: (Active assays), ER assay listed as active (ER [9]) | ToxCast 1: (Active assays), positive/total ER assays (ER [9]) | ToxCast conclusion from assays result (ER [9]) | aromatase inhibitory action (aromatase [10]) | ToxCast Pathway Model (AUC) (AR [11]) | ToxCast Pathway Model (AUC) (ER [12]) | other results |
| --- | --- | --- | --- | --- | --- | --- | --- | --- | --- | --- | --- | --- | --- | --- | --- | --- | --- | --- | --- | --- | --- |
| CCN(CC)c1ccc(C(=O)c2ccccc2C(=O)O)c(O)c1 [DEABA, 2-(4-(diethylamino)-2-hydroxybenzoyl)benzoic acid] | 0/2 positive | Negative | Negative | Negative | Negative | Negative | Negative | Negative | Negative | > 100 | > 100 | Endocrine Disruption Potential.Significant Estrogen Receptor activity seen | 1/9 positive | Boarderline: less than 50% efficacy (28.5%) | TOX21_ERa_LUC_VM7_Agonist | 1/8 positive | Endocrine Disruption Potential.Significant Estrogen Receptor activity seen | – | – | – | ER antagonism in the YES assay (ERα [2]): inconclusive; Lowest Effective Concentration (LEC), ER agonism (ERα [3]): 56 µM; efficacy (assays Comments) (AR [8]; TOX21_AR_BLA_Antagonist_ratio): Boarderline: less than 50% efficacy (38.5%); ER binding outcome (human (non-selective) ER): negative; inhibition of control specific binding to the ER (human (non-selective) ER; single-dose screening, 10 µM): less than -25% |
| CC/C(=C(\c1ccccc1)c1ccc(OCCNC)cc1)c1ccccc1 [N-desmethyl-tamoxifen] | – | – | – | – | – | – | – | – | – | – | – | – | – | – | – | – | – | potent inhibitors | – | – | – |
| CC/C(=C(\c1ccccc1)c1ccc(OCCN(C)C)cc1)c1ccccc1 [Tamoxifen, reference compound] | – | Positive | Positive | Moderate antagonist | Inconclusive | – | – | Positive for agonism and antagonism | ER agonist and antagonist | > 3.16 | > 1 | Endocrine Disruption Potential.Significant Estrogen Receptor activity seen | 9/17 Positive | – | – | 19/21 positive | Endocrine Disruption Potential.Significant Estrogen Receptor activity seen | no appreciable inhibition | AUC = 0.042, then there is no significant interaction. | 0.45 | ToxCast (Aromatase assays), assay listed as active (aromatase [1]; each listed assay name = active assay): TOX21_Aromatase_Inhibition; also recorded: TOX21_Aromatase_Inhibition_viability; ToxCast 1: (assays Comments) (AR [8]; comment on all active AR assays): There is binding, but only one concentration above the baseline, (noisy data); ToxCast Pathway Model interaction (ER [12]): significant interaction |
| O=C(O)c1ccc(C(=O)O)cc1 [Terephthalic acid, terephthalic acid] | 0/2 positive | Negative | Negative | Negative | Negative | Negative | Negative | Negative | Negative | > 100 | > 100 | – | 0/14 positive | Boarderline: less than 50% efficacy (31.34%) | OT_ER_ERaERb_1440 | 1/18 Positive | – | – | AUC = 0, then there is no significant interaction. | 0 | ToxCast Pathway Model interaction (ER [12]): NO significant interaction |
| CC/C(=C(\c1ccc(O)cc1)c1ccc(OCCNC)cc1)c1ccccc1 [endoxifen] | – | – | – | – | – | – | – | – | – | – | – | – | – | – | – | – | – | potent inhibitors | – | – | – |

— publication PMC10761396, “Evaluation of new alternative methods for the identification of estrogenic, androgenic and steroidogenic effects: a comparative in vitro/in silico study” (Archives of Toxicology, 2023)
